In ChEMBL document CHEMBL4359916, “Design, synthesis and biological evaluation of 1-benzyl-5-oxopyrrolidine-2-carboximidamide derivatives as novel neuroprotective agents” (Eur J Med Chem, 2019):
Calls of active or inactive are those of the source. No cut-off for these calls is given here.

Legend:
SH-SY5Y [1] = experiment: Neuroprotective activity against NMDA-induced cell damage in human SH-SY5Y cells assessed as cell viability at 0.05 uM preincubated for 8 hrs followed by NMDA addition and further incubated for 30 mins and measured after 12 hrs by MTT assay relative to control; assay type: functional; conditions: read-out: Activity
SH-SY5Y [2] = experiment: Neuroprotective activity against NMDA-induced cell damage in human SH-SY5Y cells assessed as cell viability at 5 uM preincubated for 8 hrs followed by NMDA addition and further incubated for 30 mins and measured after 12 hrs by MTT assay relative to control; assay type: functional; conditions: read-out: Activity
SH-SY5Y [3] = experiment: Neuroprotective activity against NMDA-induced cell damage in human SH-SY5Y cells assessed as cell viability at 0.5 uM preincubated for 8 hrs followed by NMDA addition and further incubated for 30 mins and measured after 12 hrs by MTT assay relative to control; assay type: functional; conditions: read-out: Activity
[4] = target: T1, Glutamate [NMDA] receptor (Homo sapiens) (UniProt Q05586+Q12879+Q13224+O15399+O60391+Q14957+Q8TCU5); experiment: Antagonist activity at NMDA receptor in human SH-SY5Y cells assessed as reduction in NMDA-stimulated calcium ion influx at 5 uM measured after 3 hrs by Fluo-3 AM indicator based laser scanning confocal microscopy analysis; assay type: cell-based
Mus musculus [5] = experiment: Cognitive enhancing effect in C57BL/6 mouse model of bilateral common carotid artery occlusion-induced brain ischemia assessed as increase in spontaneous alternation behavior at 10 to 50 mg/kg/day, po via gavage at 24 hrs post surgery on day 8 after 1 hr drug administration by Y-maze test; assay type: functional, organism-based
Mus musculus [6] = experiment: Cognitive enhancing effect in C57BL/6 mouse model of bilateral common carotid artery occlusion-induced brain ischemia assessed as effect on total arm entries at 10 to 50 mg/kg/day, po via gavage at 24 hrs post surgery on day 8 after […] of drug administration by Y-maze test; assay type: functional, organism-based
[7] = Metabolic stability in human liver microsomes assessed as parent compound remaining at 10 uM measured after 60 mins; assay type: ADME, Microsome; conditions: read-out: Stability
[8] = Half-life in human liver microsomes at 10 uM preincubated for 10 mins followed by addition of NADPH and measured for 5 to 60 mins; assay type: ADME, Microsome
Mus musculus [9] = experiment: Cognitive enhancing effect in C57BL/6 mouse model of bilateral common carotid artery occlusion-induced brain ischemia at 50 mg/kg/day, po via gavage at 24 hrs post surgery after day 17; assay type: functional, organism-based
SH-SY5Y [10] = experiment: Neuroprotective activity in human SH-SY5Y cells assessed as reduction in NMDA-induced NR2B upregulation preincubated for 6 hrs followed by NMDA addition and further incubated for 30 mind and measured after 4 hrs by Western blot analysis; assay type: functional, cell-based
Mus musculus [11] = experiment: (§1) Improvement in spatial memory impairment in C57BL/6 mouse model of bilateral common carotid artery occlusion-induced brain ischemia assessed as increase in number of virtual platform crossing at 10 to 50 mg/kg/day, po via gavage at 24 hrs post surgery and 1 hr prior to the test measured on day 14 to 17 by Morris water maze test; assay type: functional, organism-based
Mus musculus [12] = experiment: as §1, with “time spent in correct quadrant” for “number of virtual platform crossing”; assay type: functional, organism-based
Mus musculus [13] = experiment: Improvement in visual recognition effect in C57BL/6 mouse model of bilateral common carotid artery occlusion-induced brain ischemia at 50 mg/kg/day, po via gavage at 24 hrs post surgery measured on day 9 to 12 by novel object recognition test; assay type: functional, organism-based
[14] = target: T1, Glutamate [NMDA] receptor (Homo sapiens); experiment: Inhibition of NMDA receptor in NMDA-induced human SH-SY5Y cells assessed as increase in phosphorylated ERK1/2 level preincubated for 6 hrs followed by NMDA addition and further incubated for 30 mind and measured after 4 hrs by Western blot analysis; assay type: cell-based
Mus musculus [15] = experiment: Memory enhancement effect in C57BL/6 mouse model of bilateral common carotid artery occlusion-induced brain ischemia assessed as increase in discrimination index at 50 mg/kg/day, po via gavage 24 hrs post surgery measured on day 9 to 12 after 24 hrs by novel object recognition test; assay type: functional, organism-based
Mus musculus [16] = experiment: as §1, with “decrease” for “increase”, “escape latency” for “number of virtual platform crossing”; assay type: functional, organism-based
Mus musculus [17] = experiment: Improvement in spatial memory impairment in C57BL/6 mouse model of bilateral common carotid artery occlusion-induced brain ischemia at 50 mg/kg/day, po via gavage at 24 hrs post surgery after day 17; assay type: functional, organism-based
Mus musculus [18] = experiment: as §1, with “swimming distance” for “number of virtual platform crossing”; assay type: functional, organism-based
[19] = Clearance in human liver microsomes at 10 uM preincubated for 10 mins followed by addition of NADPH and measured for 5 to 60 mins; assay type: ADME, Microsome
Mus musculus [20] = experiment: Memory enhancement effect in C57BL/6 mouse model of bilateral common carotid artery occlusion-induced brain ischemia assessed as increase in preferential index at 50 mg/kg/day, po via gavage after 24 hrs post surgery measured on day 9 to 12 after 1 hr by novel object recognition test; assay type: functional, organism-based
Mus musculus [21] = experiment: Improvement in spatial memory impairment in C57BL/6 mouse model of bilateral common carotid artery occlusion-induced brain ischemia at 50 mg/kg/day, po via gavage at 24 hrs post surgery measured on day 9 to 12 by novel object recognition test; assay type: functional, organism-based

SMILES | viability at 0.05 µM (SH-SY5Y [1]) | viability at 5 µM (SH-SY5Y [2]) | viability at 0.5 µM (SH-SY5Y [3]) | other results
C[C@@H]([C@@H](O)c1ccc(O)cc1)N1CCC(Cc2ccccc2)CC1 [(S)-IFENPRODIL] | 29.4% | 41% | 40.4% | inhibition [4]: Active
COc1ccc(CNC(=N)[C@@H]2CCC(=O)N2Cc2ccccc2)cc1 | 7.1% | 19.5% | 23.6% | –
COc1ccc(CNC(=N)[C@@H]2CCC(=O)N2Cc2ccc(C)cc2)cc1 | 19.5% | 29.5% | 21.9% | –
COc1ccc(CNC(=N)[C@@H]2CCC(=O)N2Cc2ccc(F)cc2)cc1 | 15.8% | 38.1% | 36.7% | –
COc1ccc(CNC(=N)[C@@H]2CCC(=O)N2Cc2ccc([N+](=O)[O-])cc2)cc1 | 14.3% | 35.2% | 25.4% | –
N=C(NCc1ccccc1)[C@@H]1CCC(=O)N1Cc1ccccc1[N+](=O)[O-] | 10.1% | 25.3% | 28.8% | –
COc1ccc(CNC(=N)[C@@H]2CCC(=O)N2Cc2ccccc2[N+](=O)[O-])cc1 | 18.1% | 25.4% | 21.1% | –
COc1ccc(CN2C(=O)CC[C@H]2C(=N)NCc2ccccc2)cc1 | 12.3% | 17.9% | 21% | –
Cl.N=C(NCc1ccc(O)cc1)[C@@H]1CCC(=O)N1Cc1ccc(F)cc1 | 35.2% | 48.6% | 42% | Activity (Mus musculus [5]): Active; Activity (Mus musculus [6]): inactive; remaining at 1 h, 10 µM [7]: 92.7%; half-life at 10 µM [8]: > 2.42 h; Activity (Mus musculus [9]): Active; Activity (SH-SY5Y [10]): Active; Activity (Mus musculus [11]): Active; Activity (Mus musculus [12]): Active; Activity (Mus musculus [13]): Active; inhibition [14]: Active; Activity (Mus musculus [15]): Active; Activity (Mus musculus [16]): Active; Activity (Mus musculus [17]): Active; Activity (Mus musculus [18]): Active; CLint [19]: < 9.6 µL/min/mg; Activity (Mus musculus [20]): Active; inhibition [4]: Active; Activity (Mus musculus [21]): Active
N=C(NCc1ccc(O)cc1)[C@@H]1CCC(=O)N1Cc1ccccc1 | 19.8% | 37.6% | 35.4% | –
COc1ccc(CN2C(=O)CC[C@H]2C(=N)NCc2ccc(O)cc2)cc1 | 16% | 26.6% | 20.5% | –
N=C(NCc1ccccc1)[C@@H]1CCC(=O)N1Cc1ccc(F)cc1 | 13.3% | 31.4% | 23.3% | –
N=C(NCc1ccccc1)[C@@H]1CCC(=O)N1Cc1ccc([N+](=O)[O-])cc1 | 13.7% | 25.6% | 24% | –
Cc1ccc(CN2C(=O)CC[C@H]2C(=N)NCc2ccc(O)cc2)cc1 | 20.5% | 23.8% | 21.9% | –
N=C(NCc1ccc(O)cc1)[C@@H]1CCC(=O)N1Cc1ccc([N+](=O)[O-])cc1 | 25.9% | 34.5% | 31.3% | –
COc1ccc(CNC(=N)[C@@H]2CCC(=O)N2Cc2ccc(OC)cc2)cc1 | 24.2% | 33.6% | 24.8% | –
Cc1ccc(CN2C(=O)CC[C@H]2C(=N)NCc2ccccc2)cc1 | 17.1% | 24.8% | 23.5% | –
N=C(NCc1ccccc1)[C@@H]1CCC(=O)N1Cc1ccccc1 | 16.6% | 20.7% | 27.9% | –
N=C(NCc1ccc(O)cc1)[C@@H]1CCC(=O)N1Cc1ccccc1[N+](=O)[O-] | 20% | 30.4% | 26.9% | –
